Results from ChEMBL document CHEMBL3045171, “Design and synthesis of some pyrazole derivatives of expected anti-inflammatory and analgesic activities” (Med Chem Res, 2012).

Assays:
Mus musculus [1] = test: Analgesic activity in Mus musculus (mouse) assessed as inhibition of p-benzoquinone-induced writhing at 25 mg/kg, ip pretreated 30 min prior to carrageenan administration measured 3 hr after carrageenan challenge (reference value: 0%); assay type: functional; details: route intraperitoneal
Rattus norvegicus [2] = test: Gastrointestinal toxicity in Rattus norvegicus albino (rat) assessed as ulcer index at 25 mg/kg, po for 3 days measured 2 hr after last dose; assay type: organism-based; set-up: dose 25 mg/kg, route oral; details: in vivo
Mus musculus [3] = test: Analgesic activity in Mus musculus (mouse) assessed as inhibition of p-benzoquinone-induced writhing at 25 mg/kg, ip pretreated 30 min prior to carrageenan administration measured 4 hr after carrageenan challenge (reference value: 0%); assay type: functional; details: route intraperitoneal
Mus musculus [4] = test: Analgesic activity in Mus musculus (mouse) assessed as inhibition of p-benzoquinone-induced writhing at 25 mg/kg, ip pretreated 30 min prior to carrageenan administration measured 2 hr after carrageenan challenge (reference value: 0%); assay type: functional; details: route intraperitoneal
Mus musculus [5] = test: Analgesic activity in Mus musculus (mouse) assessed as inhibition of p-benzoquinone-induced writhing at 25 mg/kg, ip pretreated 30 min prior to carrageenan administration measured 1 hr after carrageenan challenge (reference value: 0%); assay type: functional; details: route intraperitoneal
Rattus norvegicus [6] = test: Anti-inflammatory activity in Rattus norvegicus albino (rat) assessed as inhibition of carrageenan-induced paw edema at 25 mg/kg, ip pretreated 30 min prior to carrageenan administration measured 4 hr after carrageenan challenge (reference value: 0%); assay type: functional; details: route intraperitoneal
Rattus norvegicus [7] = test: Anti-inflammatory activity in Rattus norvegicus albino (rat) assessed as inhibition of carrageenan-induced paw edema at 25 mg/kg, ip pretreated 30 min prior to carrageenan administration measured 1 hr after carrageenan challenge (reference value: 0%); assay type: functional; details: route intraperitoneal
Rattus norvegicus [8] = test: Anti-inflammatory activity in Rattus norvegicus albino (rat) assessed as inhibition of carrageenan-induced paw edema at 25 mg/kg, ip pretreated 30 min prior to carrageenan administration measured 2 hr after carrageenan challenge (reference value: 0%); assay type: functional; details: route intraperitoneal
Rattus norvegicus [9] = test: Anti-inflammatory activity in Rattus norvegicus albino (rat) assessed as inhibition of carrageenan-induced paw edema at 25 mg/kg, ip pretreated 30 min prior to carrageenan administration measured 3 hr after carrageenan challenge (reference value: 0%); assay type: functional; details: route intraperitoneal
[10] = Toxicity in ip dosed Mus musculus (mouse) after 24 hr; assay type: organism-based; details: in vivo

Row | SMILES | inhibition in vivo at 25 mg/kg (Mus musculus [1]) [%] | UI (Rattus norvegicus [2]) | inhibition in vivo at 25 mg/kg (Mus musculus [3]) [%] | inhibition in vivo at 25 mg/kg (Mus musculus [4]) [%] | inhibition in vivo at 25 mg/kg (Mus musculus [5]) [%] | inhibition in vivo at 25 mg/kg (Rattus norvegicus [6]) [%] | inhibition in vivo at 25 mg/kg (Rattus norvegicus [7]) [%] | inhibition in vivo at 25 mg/kg (Rattus norvegicus [8]) [%] | inhibition in vivo at 25 mg/kg (Rattus norvegicus [9]) [%] | LD50 at 24 h [10] [mg/kg]
1 | C=C(C)C(=O)c1ccc(OC)cc1OC | 0 | 15.24 | 0 | 20 | 20 | 32.3 | 23.7 | 29.8 | 31.5 | 278
2 | C=C(C(=O)c1ccc(OC)cc1OC)c1ccccc1 | – | – | – | – | – | 2.9 | 0 | 1.43 | 1.92 | 232
3 | COc1ccc(C2=NNCC2C)c(OC)c1 (stereo unspecified) | 40 | 11.67 | 20 | 60 | 80 | 44.4 | 40.4 | 44.5 | 45.1 | 292
4 | COc1ccc(C2=NNCC2c2ccccc2)c(OC)c1 (stereo unspecified) | – | – | – | – | – | 1.92 | 0 | 0 | 1.8 | 278
5 | COc1ccc(C2=NN(C(=O)NS(=O)(=O)c3ccc(C)cc3)CC2C)c(OC)c1 (stereo unspecified) | 0 | – | 0 | 20 | 20 | 25.1 | 23.7 | 27.3 | 25.2 | 232
6 | COc1ccc(C2=NN(C(=O)NS(=O)(=O)c3ccc(Cl)cc3)CC2C)c(OC)c1 (stereo unspecified) | – | – | – | – | – | 18.8 | 12.2 | 14.6 | 16.4 | 248
7 | COc1ccc(C2=NN(C(=O)NS(=O)(=O)c3ccc(C)cc3)CC2c2ccccc2)c(OC)c1 (stereo unspecified) | – | – | – | – | – | 7.21 | 4.9 | 6.33 | 4.83 | 292
8 | COc1ccc(C2=NN(C(=O)NS(=O)(=O)c3ccc(Cl)cc3)CC2c2ccccc2)c(OC)c1 (stereo unspecified) | 20 | – | 0 | 40 | 40 | 23.6 | 24.1 | 27.3 | 25.7 | 248
9 | COc1ccc(C2=NN(C(=S)NC(=O)c3ccc(Cl)cc3)CC2C)c(OC)c1 (stereo unspecified) | – | – | – | – | – | 1.43 | 0 | 0 | 1.94 | 232
10 | COc1ccc(C2=NN(C(=S)NC(=O)c3ccc(Cl)cc3)CC2c2ccccc2)c(OC)c1 (stereo unspecified) | – | – | – | – | – | 1.92 | 0 | 0 | 1.43 | 292
11 | CCOC(=O)C(=O)C(C)C(=O)c1ccc(OC)cc1OC (stereo unspecified) | – | – | – | – | – | 24.6 | 23.7 | 27.2 | 26.1 | 278
12 | CCOC(=O)C(=O)C(C(=O)c1ccc(OC)cc1OC)c1ccccc1 (stereo unspecified) | – | – | – | – | – | 21.2 | 15.1 | 20 | 20.8 | 278
13 | CCOC(=O)c1nn(-c2ccccc2)c(-c2ccc(OC)cc2OC)c1C | – | – | – | – | – | 5.77 | 4.9 | 4.86 | 5.81 | 278
14 | CCOC(=O)c1nn(-c2ccc(Cl)cc2)c(-c2ccc(OC)cc2OC)c1C | 20 | – | 0 | 40 | 40 | 2.38 | 0 | 1.43 | 2.22 | 248
15 | CCOC(=O)c1nn(-c2ccccc2)c(-c2ccc(OC)cc2OC)c1-c1ccccc1 | – | – | – | – | – | 20.2 | 17.7 | 20.5 | 20.8 | 292
16 | CCOC(=O)c1nn(-c2ccc(Cl)cc2)c(-c2ccc(OC)cc2OC)c1-c1ccccc1 | – | – | – | – | – | 15.4 | 6.89 | 12.7 | 15 | 278
17 | COc1ccc(-c2c(C)c(C(=O)O)nn2-c2ccc(Cl)cc2)c(OC)c1 | 20 | – | 0 | 20 | 40 | 22.7 | 24.7 | 28.4 | 22.8 | 232
18 | COc1ccc(-c2c(-c3ccccc3)c(C(=O)O)nn2-c2ccc(Cl)cc2)c(OC)c1 | 40 | 11.56 | 20 | 60 | 80 | 42.5 | 37 | 42 | 45.5 | 232
19 | COc1ccc(C(=O)Cc2ccccc2)c(OC)c1 | – | – | – | – | – | 15.9 | 5.91 | 11.2 | 15 | 278
20 | Cc1ccc(-c2cc(C(F)(F)F)nn2-c2ccc(S(N)(=O)=O)cc2)cc1 [CELECOXIB] | 80 | 8.4 | 80 | 100 | 100 | 62.8 | 54.2 | 61.1 | 64 | 250
21 | CC(C)Cc1ccc(C(C)C(=O)O)cc1 (stereo unspecified) [IBUPROFEN] | – | 22.92 | – | – | – | 76.1 | 55.4 | 63.5 | 66.7 | –
